We go through 13 compounds from ChEMBL document CHEMBL1150710, “Cytotoxic steroids of Gelsemium sempervirens” (1987).

One test relates to P388. Briefly: Cytotoxicity against mouse P388 cells. As to conditions: for EC50: read-out: ED50 (the source's name). The class given is functional.
For another test, the system named is KB. Briefly: Cytotoxicity against human KB cells. Type of test: functional. As to conditions: for EC50: read-out: ED50 (the source's name).

Structures are written as SMILES. Values after ≈ are worked out from the molar mass of the structure shown. Active and inactive are the calls of the source. No cut-off for these calls is given here.

Take `C=C[C@]12C(=O)N(C)[C@@H]3[C@H]4CO[C@H](C[C@H]41)[C@]1(C(=O)Nc4ccccc41)[C@@H]32`: the ED50 result in the test with P388 and with KB was “inactive” in each case.

Take `C/C=C1\CN(C)[C@H]2C[C@@]3(C(=O)N(OC)c4ccccc43)[C@H]3C[C@@H]1[C@@H]2CO3`: the ED50 result with P388 and in the test on KB was “inactive” throughout.

In the case of `C=C[C@]12CN(C)[C@@H]3[C@H]4CO[C@H](C[C@H]41)[C@]1(C(=O)Nc4ccccc41)[C@@H]32`, the ED50 entry in the test with P388 and in the test on KB was “inactive” throughout.

Turning to `C/C=C1\CN2[C@H]3C[C@H]1[C@H](CO)[C@@H]2Cc1c3[nH]c2ccccc12`, the ED50 result with P388 and with KB was “inactive” in each case.

Regarding `CCC1=N[C@H]2C[C@@]3(C(=O)N(OC)c4ccccc43)[C@H]3C[C@@H]1[C@@H]2CO3`, the ED50 result in the test on P388 and in the test on KB was “inactive” in each case.

Regarding `C=C[C@]12CN(C)[C@@H]3[C@H]4CO[C@H](C[C@H]41)[C@]1(C(=O)N(OC)c4ccccc41)[C@@H]32`, the ED50 result with P388 and in the test on KB was “inactive” each time.

With `CC(=O)C1=CC[C@H]2[C@@H]3CC[C@H]4CC(=O)CC[C@]4(C)[C@H]3C[C@@H](O)[C@]12C`, the EC50 in the test on P388 amounted to 0.9 µg/mL (≈ 2.72 µM); in the test on KB it was 0.7 µg/mL (≈ 2.12 µM).

Regarding `CC(=O)C1=CC[C@H]2[C@@H]3CCC4=CC(=O)CC[C@]4(C)[C@H]3C[C@@H](O)[C@]12C`, the EC50 in the test on P388 worked out at 2.8 µg/mL (≈ 8.52 µM); with KB it was 2 µg/mL (≈ 6.09 µM).

For `CC[C@H]1N[C@H]2C[C@@]3(C(=O)N(OC)c4ccccc43)[C@H]3C[C@@H]1[C@@H]2CO3`, the ED50 entry in the test on P388 and with KB was “inactive” in each case.

Turning to `C[C@H]1[C@H](C)CC[C@]2(C(=O)O)CC[C@]3(C)C(=CC[C@@H]4[C@@]5(C)CC[C@H](O)C(C)(C)[C@@H]5CC[C@]43C)[C@H]12`, the ED50 result in the test on P388 and in the test with KB was “inactive” throughout.

In the case of `CC[C@H]1N[C@H]2C[C@@]3(C(=O)N(OC)c4ccccc43)[C@@H]3OC[C@H]2[C@H]1[C@@H]3O`, the ED50 result in the test with P388 and in the test on KB was “inactive” throughout.

For `CCC1=N[C@H]2C[C@@]3(C(=O)N(OC)c4ccccc43)[C@@H]3OC[C@H]2[C@H]1[C@@H]3O`, the ED50 result in the test on P388 and in the test on KB was “inactive” each time.

On to `COc1cc2ccc(=O)oc2cc1O`, for which the ED50 entry in the test on P388 and in the test with KB was “inactive” in each case.
